# Test results published in patent US20210077477A1, “MICROGLIA MODULATORS FOR USE IN TREATMENT OF DEPRESSION” (priority 2018, published 2021).
# Entries after “also recorded” stand apart in the source; their conditions may differ.
# How the values were obtained:
# hippocampal neurogenesis = experiment: Hippocampal neurogenesis (DCX-positive cells in the DG); assay type: in vivo, mice; conditions: CUS-exposed, PLX diet, DCX-stained cells in DG
# Method: Microglia were visualized using a primary antibody to the microglial marker ionized calcium-binding adapter molecule-1 (Iba-1) (rabbit anti Iba-1 1:250, Wako, Japan), followed by a secondary antibody (goat anti rabbit, 1:200; Invitrogen, Carlsbad, Calif., USA). The rate of neurogenesis in the hippocampus was measured by staining for doublecortin (DCX), using guinea pig anti-DCX (1:1,000, Millipore, Chemicon, Tamecula, Calif., USA) as the primary antibody, and biotin-SP-conjugated donkey anti-Guinea pig (1:200; Jackson Laboratories, West grove, PA, USA) as the secondary antibody, with final visualization using a conjugated streptavidin Ab (Jackson Laboratories, West grove, PA, USA). […]
# Images were captured using a Nikon Eclipse microscope and camera. Cells were manually counted using 10× magnification in a defined area exclusively containing the dentate gyrus (DG) or CA3 region of the dorsal hippocampus for each slide, using Nikon Imaging Elements Software (NIS-Elements). Four sections of each brain were counted. […] Microglia cell processes length was measured by capturing images at 40× magnification and by manual tracing of the processes of all Iba-1+ cells in these sections, using the Image)/FIJI software. […] Contacts were recorded if spatial overlap was observed on the body or on the dendrite branches of P2YR12-positive cells. […]
# CUS-exposed mice [1] = experiment: Porsolt forced swim test in the CUS model; assay type: in vivo
# Method: (§1) The CUS schedule comprised daily exposure to two stressors in a random order over a 5-week period. The list of CUS stressors included: cage shaking for 1 h with loud music and lights on, lights on during the entire night (12 h), lights-off for 3 h during the daylight phase, flashing (stroboscopic) light for 6 h, placement in 4° C. cold room for 1 h, mild restraint (in small ventilated cages) for 2 h, 45° cage tilt for 14 h, wet sawdust in the cage for 14 h, exposure to rat odor for 2 h, noise in the room for 3 h, and water deprivation for 12 h during the dark period.
# Mice were placed in a plastic cylinder (with a height of 30 cm and diameter of 20 cm), filled with 25° C. water. The time spent immobile, defined as the absence of all movement except for motions required to maintain head above water were recorded for 6 min, and automatically analyzed off-line using the EthoVision software (Noldus).
# CUS-exposed mice [2] = experiment: Social exploration test in the CUS model; assay type: in vivo
# Method: as §1
# Each subject was placed in an observation cage and allowed to habituate to the cage for 15 min, following which a male juvenile was placed in the cage. Social exploration, defined as the time of near contact between the nose of the subject and the juvenile conspecific, was then recorded for 2 min, using computerized in-house software.
# CUS-exposed mice [3] = experiment: Sucrose preference test (anhedonia) in the CUS model; assay type: in vivo
# Method: as §1
# Following baseline adaptation to sucrose for 3-4 days, mice were presented in the beginning of the dark circadian phase with two graduated drinking tubes, one containing tap water and the other 1% sucrose solution for 4 h. Sucrose preference was calculated as the percentage of sucrose consumption out of the total drinking volume.
# [4] = tested on: hippocampal gene transcripts; experiment: qPCR validation of hippocampal gene expression; assay type: in vivo; conditions: hippocampus, CUS-exposed mice
# Method: Mice were sacrificed by decapitation. Each brain was quickly removed on an ice-cold glass plate, and the hippocampus was dissected out under a binocular. Tissues were weighed, flash frozen in liquid nitrogen, and stored in −80° C. until RNA extraction. RNA was extracted using PerfectPure RNA extraction kit (5 PRIME, Darmstadt, Germany). RNA samples (2 μg) were reverse transcribed using the QuantiTect Reverse Transcription Kit from Qiagen (Hilden, Germany), including DNase treatment of contaminating genomic DNA. Expression of mRNA was determined by qPCR, using glyceraldehyde-3-phosphate dehydrogenase (Gapdh) as a normalizing gene. The following list of gene transcripts was validated: Ionized calcium-binding adapter molecule 1 (Iba1), the Purinergic receptor P2yr12, Lymphocyte-activation gene 3 (Lag-3), Cd180, tryptophan 2,3-dioxygenase (Tdo2), Phospholipase A2 Group IVE (Plag24e) Sox11, and Dopamine Receptor D1 (Drd1). Primers were designed using PrimerQuest IDT (Integrated DNA Technologies, Inc, San Diego, Calif., USA). The following primers were used, Gapdh, Forward: TCTCCCTCACAATTTCC (SEQ ID NO: 1); Reverse: GGGTGCAGCGAACTTTA (SEQ ID NO: 2). Drd1, Forward: […] (SEQ ID NO: 3); Reverse: […] (SEQ ID NO: 4). Tdo2, Forward: […] (SEQ ID NO: 5); Reverse: […] (SEQ ID NO: 6). Iba1, Forward: […] (SEQ ID NO: 7); Reverse: […] (SEQ ID NO: 8). Lag-3, Forward: […] (SEQ ID NO: 9); Reverse: […] (SEQ ID NO: 10). Cd180, Forward: […] (SEQ ID NO: 11); Reverse: […] (SEQ ID NO: 12). Sox11, Forward: […] (SEQ ID NO: 13); Reverse: […] (SEQ ID NO: 14). Plag24e, Forward: […] (SEQ ID NO: 15); Reverse: […] (SEQ ID NO: 16), and P2yr12 Forward: […] (SEQ ID NO: 17); Reverse: […] (SEQ ID NO: 18). Normal and mock reversed transcribed samples (in the absence of reverse transcriptase), as well as no template controls (total mix without cDNA) were run for each of the examined mRNAs. qPCR reactions were subjected to an initial step of 15 min at 95° C. to activate the HotStar Taq DNA polymerase, followed by 40 cycles consisting of 15 s at 94° C., 30 s at 60° C. and 30 s at 72° C. Fluorescence was measured at the end of each elongation step. Data were collected and analyzed using the StepOnePlus instrument and software (Thermo Fischer Scientific), and a threshold cycle value Ct was calculated from the exponential phase of each PCR sample. Expression levels of mRNAs were calculated and expressed in relative units of SYBR Green fluorescence.
# [5] = tested on: hippocampal gene transcripts; experiment: RNA sequencing of hippocampal gene transcription; assay type: in vivo, mice; conditions: for Log 2 (fold change) Con-Stress-Sham vs. PLX-Stress-Sham: hippocampus
# Excerpt: RNA Sequencing, PolyA based mRNA was selected using oligodT beads, followed by fragmentation, first strand and second strand synthesis reactions. Illumina libraries were constructed while performing the end repair, A base addition, adapter ligation and PCR amplification steps with SPRI beads cleanup in between steps. Indexed samples were pooled and sequenced in an Illumina HiSeq 2500 machine in a single read mode.
# Bioinformatics analysis. Adapters were trimmed using the cutadapt tool. Following adapter removal, reads that were shorter than 40 nucleotides were discarded (cutadapt option −m 40). Reads that had either a percentage of Adenine bases above 50% or a percentage of Thymine bases above 50% were discarded using a custom script. TopHat (v2.0.10) was used to align the reads to the mouse genome (mm10). Counting reads on mm10 refseq genes (downloaded from igenomes) was done with HTSeq-count (version 0.6.1p1). Differential expression analysis was performed using DESeq2 (1.6.3). Raw p values were adjusted for multiple testing (q-value, false discovery rate).
# brain microglia [6] = experiment: Microglia depletion by PLX5622 diet (IBA-1 staining); assay type: in vivo, mice; conditions: diet containing PLX5622 for weeks, incl. hippocampus
# brain microglia [7] = conditions: given chronically (more than 2-3 weeks); Danger et al., 2015; cited from earlier work
# [8] = PLX5622 diet, non-stressed mice
# [9] = CUS-exposed SHAM-treated mice, q<0.32, cutoff ±1.3-fold
# [10] = CUS 5 weeks, antibody 100 μg i.p. every 4 days, 6 injections, Cipralex daily i.p., 3 weeks
smiles,measurement,setting,value
COc1ncc(F)cc1CNc1ccc(Cc2c[nH]c3ncc(C)cc23)c(F)n1 [PLX5622],effect of ECT on hippocampal neurogenesis under microglia depletion,hippocampal neurogenesis,completely prevented
same,effect of ECT on hippocampal neurogenesis under microglia depletion,hippocampal neurogenesis; listed as PLX,significantly reduced
same,forced swim immobility of ECT-treated PLX mice vs CDiet mice,"CUS-exposed mice [1]; CUS-exposed, ECT 2.5 weeks",significantly greater forced swim immobility
same,"immobility in forced swim, effect of microglia depletion by itself",CUS-exposed mice [1]; [8],did not reduce
same,difference between effects of ECT on social exploration in PLX vs CDiet mice,"CUS-exposed mice [2]; CUS-exposed, ECT 2.5 weeks",did not reach statistical significance
same,"social exploration, effect of microglia depletion by itself",CUS-exposed mice [2]; [8],did not reduce
same,anti-depressive effect of ECT under microglial depletion,"CUS-exposed mice [3]; CUS-exposed, PLX5622 diet, 2.5-week course of ECT",markedly attenuated
same,effect of ECT on sucrose preference in PLX diet mice,"CUS-exposed mice [3]; CUS-exposed, PLX diet, ECT 3 times/week for 2.5 weeks",only a small increase
same,development of CUS-induced depression,"CUS-exposed mice [3]; PLX5622 diet, 5 weeks CUS, sucrose preference and social exploration",did not influence
same,"sucrose preference, effect of microglia depletion by itself",CUS-exposed mice [3]; [8],did not reduce
same,Cd180 gene expression in PLX-treated mice,[4],lower expression levels
same,"Drd1 expression, effect of the microglia depletion procedure by itself",[4],not affected
same,"Iba1 expression, effect of the PLX5622 procedure",[4],significantly reduced
same,Lag-3 transcription in PLX-treated mice,[4],almost completely abolished
same,"P2ry12 expression, effect of the PLX5622 procedure",[4],significantly reduced
same,"Sox11 expression, effect of the microglia depletion procedure by itself",[4],not affected
same,Tdo2 expression in PLX5622-treated mice,[4],significantly increased
same,pla2g4e expression in PLX5622-treated mice,[4],significantly increased
same,"genes differentially regulated, PLX vs CDiet",[5]; [9],390 genes
same,"genes down-regulated, PLX vs CDiet",[5]; [9],338 genes
same,"genes up-regulated, PLX vs CDiet",[5]; [9],52 genes
same,genes differentially regulated between SHAM vs ECT in PLX-treated groups,[5]; CUS-exposed mice,no genes were differentially regulated
same,Log 2 (fold change) Con-Stress-Sham vs. PLX-Stress-Sham,[5]; Cd40 transcript,0.159
same,Log 2 (fold change) Con-Stress-Sham vs. PLX-Stress-Sham,[5]; Cd80 transcript,0.371
same,Log 2 (fold change) Con-Stress-Sham vs. PLX-Stress-Sham,[5]; Cd86 transcript,2.092
same,Log 2 (fold change) Con-Stress-Sham vs. PLX-Stress-Sham,[5]; Cd180 transcript,1.892
same,Log 2 (fold change) Con-Stress-Sham vs. PLX-Stress-Sham,[5]; Cd276 transcript,0.019
same,Log 2 (fold change) Con-Stress-Sham vs. PLX-Stress-Sham,[5]; Ctla4 transcript,0.100
same,Log 2 (fold change) Con-Stress-Sham vs. PLX-Stress-Sham,[5]; Havcr2 (TIM-3) transcript,2.101
same,Log 2 (fold change) Con-Stress-Sham vs. PLX-Stress-Sham,[5]; Lag-3 transcript,1.968
same,Log 2 (fold change) Con-Stress-Sham vs. PLX-Stress-Sham,[5]; Lgals3 transcript,0.011
same,Log 2 (fold change) Con-Stress-Sham vs. PLX-Stress-Sham,[5]; PD-L1 transcript,0.164
same,Log 2 (fold change) Con-Stress-Sham vs. PLX-Stress-Sham,[5]; Pdcd1lg2 transcript,−0.373
same,Log 2 (fold change) Con-Stress-Sham vs. PLX-Stress-Sham,[5]; Pdcd1 transcript,−0.669
same,Log 2 (fold change) Con-Stress-Sham vs. PLX-Stress-Sham,[5]; Tdo2 transcript,−0.248
same,Log 2 (fold change) Con-Stress-Sham vs. PLX-Stress-Sham,[5]; Tigit transcript,−0.804
same,Log 2 (fold change) Con-Stress-Sham vs. PLX-Stress-Sham,[5]; Vtcn1 transcript,−0.905
same,depletion of brain microglia,brain microglia [6],near-complete depletion
same,microglial depletion,brain microglia [7],near-complete microglial depletion
CN(C)CCC[C@@]1(c2ccc(F)cc2)OCc2cc(C#N)ccc21 [escitalopram],social exploration (SE) after vs before chronic treatment,CUS-exposed mice [2]; [10],significantly elevated; also recorded: significant increase
same,sucrose preference after vs before chronic treatment,CUS-exposed mice [3]; [10],had no such effect
